# Source: patent US20150175599A1, “FAAH Inhibitors” (Ironwood Pharmaceuticals, Inc., priority 2010, published 2015)
# Experiments:
# FAAH = target: T1, FAAH (Homo sapiens, UniProt O00519); experiment: FAAH inhibition, human brain membrane homogenate assay; assay type: biochemical; conditions: human brain homogenate; average activity; read-out: Human brain Extract FAAH IC50
# T1 construct: Reactions were initiated by adding 12.5 μg of brain microsome; tissue ABS, Inc; host or cells: human brain cerebral cortex, membrane/microsome fraction pooled from 3 donors
# T1 sequence (O00519 1-579): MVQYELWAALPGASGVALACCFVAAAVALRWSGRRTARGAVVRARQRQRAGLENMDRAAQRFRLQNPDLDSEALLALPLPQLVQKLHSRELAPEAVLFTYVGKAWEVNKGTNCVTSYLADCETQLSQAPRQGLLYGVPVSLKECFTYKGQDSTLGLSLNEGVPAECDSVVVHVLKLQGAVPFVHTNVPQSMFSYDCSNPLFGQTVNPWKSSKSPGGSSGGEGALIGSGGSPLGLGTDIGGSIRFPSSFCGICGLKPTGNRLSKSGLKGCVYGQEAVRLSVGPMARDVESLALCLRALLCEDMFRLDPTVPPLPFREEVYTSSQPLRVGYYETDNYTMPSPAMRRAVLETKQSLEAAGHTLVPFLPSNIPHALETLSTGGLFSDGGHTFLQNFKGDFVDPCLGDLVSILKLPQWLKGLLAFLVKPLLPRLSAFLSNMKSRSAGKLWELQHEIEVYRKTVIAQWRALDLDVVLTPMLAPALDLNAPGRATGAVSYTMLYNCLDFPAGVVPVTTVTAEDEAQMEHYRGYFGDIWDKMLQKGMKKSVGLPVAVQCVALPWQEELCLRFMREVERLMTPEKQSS
# hERG channel = target: T2, hERG channel (Homo sapiens, UniProt Q12809); experiment: hERG channel inhibition, automated patch clamp (IonWorks HT, hERG-CHO); assay type: cell-based; conditions: CHO cells expressing hERG, 600 s incubation; for inhibition at 600 s, 1 µM: 1 μM compound, read-out: hERG Channel Inhibition % (at 1 μM), vehicle-subtracted values; for inhibition at 600 s, 10 µM: 10 μM compound, read-out: hERG Channel Inhibition % (at 10 μM), vehicle-subtracted values
# T2 construct: expressed in transfected cells; host or cells: CHO (hERG-CHO), under Geneticin selection
# T2 sequence (Q12809 whole entry): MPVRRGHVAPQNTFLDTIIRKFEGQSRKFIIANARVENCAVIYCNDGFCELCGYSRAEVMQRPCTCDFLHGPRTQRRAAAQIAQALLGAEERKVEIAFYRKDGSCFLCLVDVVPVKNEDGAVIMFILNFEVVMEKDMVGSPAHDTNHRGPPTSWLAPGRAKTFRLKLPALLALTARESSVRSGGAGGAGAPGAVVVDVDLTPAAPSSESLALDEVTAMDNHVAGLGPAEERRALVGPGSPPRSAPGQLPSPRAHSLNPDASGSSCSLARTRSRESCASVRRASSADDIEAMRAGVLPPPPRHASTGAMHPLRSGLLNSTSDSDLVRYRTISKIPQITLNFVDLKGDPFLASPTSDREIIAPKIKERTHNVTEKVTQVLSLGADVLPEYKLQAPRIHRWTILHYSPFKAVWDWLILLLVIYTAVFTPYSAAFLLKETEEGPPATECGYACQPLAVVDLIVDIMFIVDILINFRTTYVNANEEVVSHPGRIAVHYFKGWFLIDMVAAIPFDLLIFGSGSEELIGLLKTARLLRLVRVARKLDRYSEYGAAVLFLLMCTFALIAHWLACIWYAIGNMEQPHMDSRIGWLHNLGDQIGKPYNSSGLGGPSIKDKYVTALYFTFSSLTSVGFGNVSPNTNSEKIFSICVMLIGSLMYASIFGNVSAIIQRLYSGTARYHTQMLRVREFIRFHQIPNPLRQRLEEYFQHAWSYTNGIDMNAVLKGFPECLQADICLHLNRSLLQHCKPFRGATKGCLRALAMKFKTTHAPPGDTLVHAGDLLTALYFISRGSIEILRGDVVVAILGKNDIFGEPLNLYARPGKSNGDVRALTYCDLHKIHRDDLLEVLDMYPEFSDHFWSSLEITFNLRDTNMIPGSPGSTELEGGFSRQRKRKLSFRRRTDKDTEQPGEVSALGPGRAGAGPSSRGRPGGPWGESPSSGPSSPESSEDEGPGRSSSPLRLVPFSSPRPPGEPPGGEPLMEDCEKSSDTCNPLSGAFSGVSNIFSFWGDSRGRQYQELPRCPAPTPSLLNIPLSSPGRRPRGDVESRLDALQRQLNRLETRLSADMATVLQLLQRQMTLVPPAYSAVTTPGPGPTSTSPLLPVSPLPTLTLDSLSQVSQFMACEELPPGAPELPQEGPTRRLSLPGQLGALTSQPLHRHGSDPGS
# Procedure, shortened: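 hERG-CHO cells held at 30 °C for 48 h before IonWorks HT patch clamp: from −80 mV to +40 for 2 s, then −50 mV for 2 s tail, repeated three times, before and after 600 s compound exposure. Third-pulse post/pre tail amplitude ratio gave percent inhibition; cells with seal <50 MOhm or tail <250 pA excluded.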
Compound,IC50 (FAAH) [µM],"inhibition at 600 s, 1 µM (hERG channel) [%]","inhibition at 600 s, 10 µM (hERG channel) [%]"
"COc1cc(NC(=O)C(=O)c2c(C)n(Cc3ccc(Cl)cc3)c3cccnc23)ccn1 [Compound 3, 2-(1-(4-chlorobenzyl)-2-methyl-1H-pyrrolo[3,2-b]pyridin-3-yl)-N-(2-methoxypyridin-4-yl)-2-oxoacetamide]",< 0.1,< 25,25 to 50
"COc1cc(NC(=O)C(=O)c2c(C)n(Cc3ccc(Cl)cc3)c3ccc(C(=O)O)cc23)ccn1 [Compound 4, 1-(4-chlorobenzyl)-3-(2-(2-methoxypyridin-4-ylamino)-2-oxoacetyl)-2-methyl-1H-indole-5-carboxylic acid]",1 to 10,,
"COc1ccc2c(c1)c(C(=O)C(=O)Nc1ccnc(OC)c1)c(C)n2Cc1cccnc1 [Compound 78, 2-(5-methoxy-2-methyl-1-(pyridin-3-ylmethyl)-1H-indol-3-yl)-N-(2-methoxypyridin-4-yl)-2-oxoacetamide]",0.1 to 1,< 25,25 to 50
"COc1ccc2c(c1)c(C(=O)C(=O)Nc1ccnc(OC)c1)c(C)n2Cc1ccc(Cl)cn1 [Compound 79, 2-(1-((5-chloropyridin-2-yl)methyl)-5-methoxy-2-methyl-1H-indol-3-yl)-N-(2-methoxypyridin-4-yl)-2-oxoacetamide]",< 0.1,< 25,< 25
"COc1cc(NC(=O)C(=O)c2c(C)n(Cc3ccc(Cl)cc3)c3cc(OC)c(Cl)cc23)ccn1 [Compound 80, 2-(5-chloro-1-(4-chlorobenzyl)-6-methoxy-2-methyl-1H-indol-3-yl)-N-(2-methoxypyridin-4-yl)-2-oxoacetamide]",< 0.1,< 25,< 25
"COc1ccc2c(c1)c(C(=O)C(=O)Nc1ccnc(OC)c1)c(C)n2Cc1ncc(F)cc1F [Compound 81, 2-(1-((3,5-difluoropyridin-2-yl)methyl)-5-methoxy-2-methyl-1H-indol-3-yl)-N-(2-methoxypyridin-4-yl)-2-oxoacetamide]",< 0.1,< 25,< 25
"COc1ccc2c(c1)c(C(=O)C(=O)Nc1ccnc(OC)c1)c(C)n2Cc1ncc(Cl)cc1Cl [Compound 82, 2-(1-((3,5-dichloropyridin-2-yl)methyl)-5-methoxy-2-methyl-1H-indol-3-yl)-N-(2-methoxypyridin-4-yl)-2-oxoacetamide]",< 0.1,< 25,< 25
"COc1ccc2c(c1)c(C(=O)C(=O)Nc1ccnc(OC)c1)c(C)n2Cc1ncccn1 [Compound 83, 2-(5-methoxy-2-methyl-1-(pyrimidin-2-ylmethyl)-1H-indol-3-yl)-N-(2-methoxypyridin-4-yl)-2-oxoacetamide]",1 to 10,,
"COc1ccc2c(c1)c(C(=O)C(=O)Nc1ccnc(OC)c1)c(C)n2Cc1ccc(C)cn1 [Compound 84, 2-(5-methoxy-2-methyl-1-((5-methylpyridin-2-yl)methyl)-1H-indol-3-yl)-N-(2-methoxypyridin-4-yl)-2-oxoacetamide]",< 0.1,< 25,< 25
"COc1cc(NC(=O)C(=O)c2c(C)n(Cc3ccc(F)cn3)c3ccc(C)cc23)ccn1 [Compound 85, 2-(1-((5-fluoropyridin-2-yl)methyl)-2,5-dimethyl-1H-indol-3-yl)-N-(2-methoxypyridin-4-yl)-2-oxoacetamide]",< 0.1,< 25,25 to 50
"COc1ccc2c(c1)c(C(=O)C(=O)Nc1ccnc(OC)c1)c(C)n2Cc1ccc(Cl)nn1 [Compound 86, 2-(1-((6-chloropyridazin-3-yl)methyl)-5-methoxy-2-methyl-1H-indol-3-yl)-N-(2-methoxypyridin-4-yl)-2-oxoacetamide]",< 0.1,,
"COc1ccc2c(c1)c(C(=O)C(=O)Nc1ccnc(OC)c1)c(C)n2Cc1ncc(Cl)cc1F [Compound 87, 2-(1-((5-chloro-3-fluoropyridin-2-yl)methyl)-5-methoxy-2-methyl-1H-indol-3-yl)-N-(2-methoxypyridin-4-yl)-2-oxoacetamide]",< 0.1,< 25,< 25
"COc1cc(NC(=O)C(=O)c2c(C)n(Cc3ccc(Cl)cc3)c3cc(F)c(C)cc23)ccn1 [Compound 89, 2-(1-(4-chlorobenzyl)-6-fluoro-2,5-dimethyl-1H-indol-3-yl)-N-(2-methoxypyridin-4-yl)-2-oxoacetamide]",< 0.1,< 25,< 25
"COc1cc(NC(=O)C(=O)c2c(C)n(Cc3ccc(Cl)cn3)c3cc(F)c(C)cc23)ccn1 [Compound 90, 2-(1-((5-chloropyridin-2-yl)methyl)-6-fluoro-2,5-dimethyl-1H-indol-3-yl)-N-(2-methoxypyridin-4-yl)-2-oxoacetamide]",< 0.1,< 25,< 25
"COc1cc(NC(=O)C(=O)c2c(C)n(Cc3ccc(Cl)cc3F)c3cc(F)c(OC)cc23)ccn1 [Compound 91, 2-(1-(4-chloro-2-fluorobenzyl)-6-fluoro-5-methoxy-2-methyl-1H-indol-3-yl)-N-(2-methoxypyridin-4-yl)-2-oxoacetamide]",< 0.1,,
"COc1cc(NC(=O)C(=O)c2c(C)n(Cc3ccc(Cl)cc3Cl)c3cc(F)c(OC)cc23)ccn1 [Compound 92, 2-(1-(2,4-dichlorobenzyl)-6-fluoro-5-methoxy-2-methyl-1H-indol-3-yl)-N-(2-methoxypyridin-4-yl)-2-oxoacetamide]",< 0.1,< 25,< 25
"COc1cc(NC(=O)C(=O)c2c(C)n(Cc3ccc(Cl)cc3)c3cc(Cl)c(C)cc23)ccn1 [Compound 93, 2-(6-chloro-1-(4-chlorobenzyl)-2,5-dimethyl-1H-indol-3-yl)-N-(2-methoxypyridin-4-yl)-2-oxoacetamide]",< 0.1,< 25,< 25
"COc1cc(NC(=O)C(=O)c2c(C)n(Cc3ccc(Cl)cn3)c3cc(Cl)c(C)cc23)ccn1 [Compound 94, 2-(6-chloro-1-((5-chloropyridin-2-yl)methyl)-2,5-dimethyl-1H-indol-3-yl)-N-(2-methoxypyridin-4-yl)-2-oxoacetamide]",< 0.1,< 25,< 25
